The values that follow are results of earlier work, collected in patent publication US10827752B2, “Disinfectant composition” (priority 2010, dated 2020).

“Also recorded” adds a separate entry of the source.

For this series, the system named is spores. The conditions noted are these: approximately 2500 ppm of peracetic acid.

Take `CC(=O)OO` [peracetic acid]: the sporicidal action result is listed as “excellent sporicidal action; also recorded: excellent sporicidal results”.
